Measured values as given in PubChem BioAssay AID2060358 (Molecular Pharmacology Branch, DTP, NCI, 2025).
Values joined by “and” are separate entries in the source; they are usually repeats but may differ in a detail not shown here. Equal values may be shown once. Blank lines part the entries; values can stand above or below the compound they belong to. Active and inactive are the calls of the source. The calls were made as follows: active = viability on the fitted dose curve at most 10% of control; inactive = the rest.

Tested on: 254851-301-R-J1-PDC spheroids, viability % test/control
Assay: Anticancer human tumor 254851-301-R-J1-PDC patient-derived colon carcinoma cell line growth inhibition [TAK]
Details: spheroids with HUVEC and MSC; for viability, T/C: stronger effect = lower value
In short: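 Tumor cells were grown as spheroids with HUVEC and hMSC (60:25:15) and treated with targeted agents combined with TAK-243 or ipatasertib. Drugs were tested in half-log steps down from near the clinical Cmax, or from 10 microM where Cmax was unknown.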

[1] = curve of first compound, second compound 0.3 µM
[2] = curve of first compound, second compound 0.949 µM
[3] = curve of first compound, second compound 3 µM
[4] = curve of first compound, second compound 9.49 µM
[5] = curve of first compound, second compound 30 µM
[6] = second compound 0.3 µM, first compound 0.00316 µM
[7] = second compound 0.3 µM, first compound 0.01 µM
[8] = second compound 0.3 µM, first compound 0.0316 µM
[9] = second compound 0.3 µM, first compound 0.1 µM
[10] = second compound 0.3 µM, first compound 0.316 µM
[11] = second compound 0.3 µM, first compound 1 µM
[12] = second compound 0.949 µM, first compound 0.00316 µM
[13] = second compound 0.949 µM, first compound 0.01 µM
[14] = second compound 0.949 µM, first compound 0.0316 µM
[15] = second compound 0.949 µM, first compound 0.1 µM
[16] = second compound 0.949 µM, first compound 0.316 µM
[17] = second compound 0.949 µM, first compound 1 µM
[18] = second compound 3 µM, first compound 0.00316 µM
[19] = second compound 3 µM, first compound 0.01 µM
[20] = second compound 3 µM, first compound 0.0316 µM
[21] = second compound 3 µM, first compound 0.1 µM
[22] = second compound 3 µM, first compound 0.316 µM
[23] = second compound 3 µM, first compound 1 µM
[24] = second compound 9.49 µM, first compound 0.00316 µM
[25] = second compound 9.49 µM, first compound 0.01 µM
[26] = second compound 9.49 µM, first compound 0.0316 µM
[27] = second compound 9.49 µM, first compound 0.1 µM
[28] = second compound 9.49 µM, first compound 0.316 µM
[29] = second compound 9.49 µM, first compound 1 µM
[30] = second compound 30 µM, first compound 0.00316 µM
[31] = second compound 30 µM, first compound 0.01 µM
[32] = second compound 30 µM, first compound 0.0316 µM
[33] = second compound 30 µM, first compound 0.1 µM
[34] = second compound 30 µM, first compound 0.316 µM
[35] = second compound 30 µM, first compound 1 µM
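For IC50 in this document: spheroids exposed to drugs for seven days before viability readout.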
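For viability, T/C in this document: spheroids exposed to drugs for seven days before viability readout; 100% = DMSO vehicle control viability.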

Structure (SMILES): COc1c(OCCCN2CCOCC2)ccc2c3n(c(=NC(=O)c4cnc(N)nc4)nc12)CCN3 + CC(C)NCC(C(=O)N1CCN(c2ncnc3c2C(C)CC3O)CC1)c1ccc(Cl)cc1
- IC50 [1]: > 1 µM
- IC50 [2]: > 1 µM
- IC50 [3]: > 1 µM
- IC50 [4]: > 1 µM
- IC50 [5]: > 1 µM
- viability, T/C [6]: 114%
- viability, T/C [7]: 105%
- viability, T/C [8]: 88.2%
- viability, T/C [9]: 78.1%
- viability, T/C [10]: 63.7%
- viability, T/C [11]: 67.6%
- viability, T/C [12]: 104%
- viability, T/C [13]: 106%
- viability, T/C [14]: 92.5%
- viability, T/C [15]: 76.3%
- viability, T/C [16]: 60%
- viability, T/C [17]: 65%
- viability, T/C [18]: 111%
- viability, T/C [19]: 108%
- viability, T/C [20]: 95.5%
- viability, T/C [21]: 82.7%
- viability, T/C [22]: 76.8%
- viability, T/C [23]: 67.3%
- viability, T/C [24]: 99.1%
- viability, T/C [25]: 100%
- viability, T/C [26]: 101%
- viability, T/C [27]: 82.4%
- viability, T/C [28]: 75.8%
- viability, T/C [29]: 74.4%
- viability, T/C [30]: 81.5%
- viability, T/C [31]: 85.1%
- viability, T/C [32]: 84.2%
- viability, T/C [33]: 71.5%
- viability, T/C [34]: 69.8%
- viability, T/C [35]: 59.9%

Structure (SMILES): COC1CC2CCC(C)C(O)(O2)C(=O)C(=O)N2CCCCC2C(=O)OC(C(C)CC2CCC(OCCO)C(OC)C2)CC(=O)C(C)C=C(C)C(O)C(OC)C(=O)C(C)CC(C)C=CC=CC=C1C (stereo not given)
- viability, T/C (compound 0.000316 µM): 114% and 108%
- viability, T/C (compound 0.001 µM): 109% and 92%
- viability, T/C (compound 0.00316 µM): 101% and 89.6%
- viability, T/C (compound 0.01 µM): 101% and 91.6%
- viability, T/C (compound 0.0316 µM): 96% and 85.4%
- viability, T/C (compound 0.1 µM): 98.1% and 84%
- IC50 (curve of compound): > 0.1 µM

Structure (SMILES): COC1CC2CCC(C)C(O)(O2)C(=O)C(=O)N2CCCCC2C(=O)OC(C(C)CC2CCC(OCCO)C(OC)C2)CC(=O)C(C)C=C(C)C(O)C(OC)C(=O)C(C)CC(C)C=CC=CC=C1C (stereo not given) + CC(C)NCC(C(=O)N1CCN(c2ncnc3c2C(C)CC3O)CC1)c1ccc(Cl)cc1
- IC50 [1]: > 0.1 µM
- IC50 [2]: > 0.1 µM
- IC50 [3]: > 0.1 µM
- IC50 [4]: > 0.1 µM
- IC50 [5]: > 0.1 µM
- viability, T/C (second compound 0.3 µM, first compound 0.000316 µM): 108%
- viability, T/C (second compound 0.3 µM, first compound 0.001 µM): 117%
- viability, T/C [6]: 99.9%
- viability, T/C [7]: 99.2%
- viability, T/C [8]: 96.8%
- viability, T/C [9]: 91.7%
- viability, T/C (second compound 0.949 µM, first compound 0.000316 µM): 115%
- viability, T/C (second compound 0.949 µM, first compound 0.001 µM): 110%
- viability, T/C [12]: 100%
- viability, T/C [13]: 104%
- viability, T/C [14]: 88.1%
- viability, T/C [15]: 91.4%
- viability, T/C (second compound 3 µM, first compound 0.000316 µM): 102%
- viability, T/C (second compound 3 µM, first compound 0.001 µM): 112%
- viability, T/C [18]: 97%
- viability, T/C [19]: 94.2%
- viability, T/C [20]: 92.1%
- viability, T/C [21]: 95.3%
- viability, T/C (second compound 9.49 µM, first compound 0.000316 µM): 90.7%
- outcome (second compound 9.49 µM, first compound 0.001 µM): inactive
- viability, T/C [24]: 98%
- viability, T/C [25]: 95%
- viability, T/C [26]: 96.2%
- viability, T/C [27]: 85.1%
- viability, T/C (second compound 30 µM, first compound 0.000316 µM): 82.7%
- viability, T/C (second compound 30 µM, first compound 0.001 µM): 95.2%
- viability, T/C [30]: 86.4%
- viability, T/C [31]: 77%
- viability, T/C [32]: 76.4%
- viability, T/C [33]: 77.2%

Structure (SMILES): CC(C)(C)c1nc(-c2cccc(NS(=O)(=O)c3c(F)cccc3F)c2F)c(-c2ccnc(N)n2)s1 + CC(C)NCC(C(=O)N1CCN(c2ncnc3c2C(C)CC3O)CC1)c1ccc(Cl)cc1
- IC50 [1]: > 10 µM
- IC50 [2]: > 10 µM
- IC50 [3]: > 10 µM
- IC50 [4]: > 10 µM
- IC50 [5]: > 10 µM
- viability, T/C [8]: 114%
- viability, T/C [9]: 103%
- viability, T/C [10]: 87.3%
- viability, T/C [11]: 84.8%
- viability, T/C (second compound 0.3 µM, first compound 3.16 µM): 77%
- viability, T/C (second compound 0.3 µM, first compound 10 µM): 72%
- viability, T/C [14]: 115%
- viability, T/C [15]: 104%
- viability, T/C [16]: 95.2%
- viability, T/C [17]: 81%
- viability, T/C (second compound 0.949 µM, first compound 3.16 µM): 76%
- viability, T/C (second compound 0.949 µM, first compound 10 µM): 75.4%
- viability, T/C [20]: 106%
- viability, T/C [21]: 107%
- viability, T/C [22]: 88.1%
- viability, T/C [23]: 79.4%
- viability, T/C (second compound 3 µM, first compound 3.16 µM): 75.6%
- viability, T/C (second compound 3 µM, first compound 10 µM): 63.8%
- viability, T/C [26]: 101%
- viability, T/C [27]: 105%
- viability, T/C [28]: 92.5%
- viability, T/C [29]: 78.4%
- viability, T/C (second compound 9.49 µM, first compound 3.16 µM): 71.8%
- viability, T/C (second compound 9.49 µM, first compound 10 µM): 64.7%
- viability, T/C [32]: 79%
- viability, T/C [33]: 81.7%
- viability, T/C [34]: 83.9%
- viability, T/C [35]: 69.1%
- viability, T/C (second compound 30 µM, first compound 3.16 µM): 59.7%
- viability, T/C (second compound 30 µM, first compound 10 µM): 54.6%

Structure (SMILES): CC(C)(C)c1nc(-c2cccc(NS(=O)(=O)c3c(F)cccc3F)c2F)c(-c2ccnc(N)n2)s1
- viability, T/C (compound 0.0316 µM): 116% and 118%
- viability, T/C (compound 0.1 µM): 105%
- viability, T/C (compound 0.316 µM): 92.3% and 86.4%
- viability, T/C (compound 1 µM): 82.1% and 82.5%
- viability, T/C (compound 3.16 µM): 86.8% and 82.2%
- viability, T/C (compound 10 µM): 80.3% and 77.6%
- IC50 (curve of compound): > 10 µM

More lines, main results first:

- IC50 (curve of compound): > 10 µM
Structure (SMILES): Cc1nc(NC(=O)N2CCCC2C(N)=O)sc1-c1ccnc(C(C)(C)C(F)(F)F)c1 (stereo not given)
- viability, T/C (compound 0.0316 µM): 123% and 110%
- viability, T/C (compound 0.1 µM): 103% and 110%
- viability, T/C (compound 0.316 µM): 95.7% and 91.7%
- viability, T/C (compound 1 µM): 92.6% and 92.3%
- viability, T/C (compound 3.16 µM): 84% and 79.1%
- viability, T/C (compound 10 µM): 70.8% and 71.9%

- IC50 (curve of compound): 0.0187 µM and 0.017 µM
Structure (SMILES): CC(=O)Nc1cccc(-n2c(=O)n(C3CC3)c(=O)c3c(Nc4ccc(I)cc4F)n(C)c(=O)c(C)c32)c1
- viability, T/C (compound 94.9 pM): 117% and 114%
- viability, T/C (compound 0.0003 µM): 114% and 116%
- viability, T/C (compound 0.000949 µM): 105% and 107%
- viability, T/C (compound 0.003 µM): 117% and 99%
- viability, T/C (compound 0.00949 µM): 97.5% and 83.9%
- viability, T/C (compound 0.03 µM): 16.8% and 18.9%

- IC50 (curve of compound): > 1 µM
Structure (SMILES): COc1c(OCCCN2CCOCC2)ccc2c3n(c(=NC(=O)c4cnc(N)nc4)nc12)CCN3
- viability, T/C (compound 0.00316 µM): 110% and 106%
- viability, T/C (compound 0.01 µM): 96.2% and 96.4%
- viability, T/C (compound 0.0316 µM): 87.8% and 82.2%
- viability, T/C (compound 0.1 µM): 78% and 71.7%
- viability, T/C (compound 0.316 µM): 75.6% and 65.8%
- viability, T/C (compound 1 µM): 59.5% and 56.5%
